Measured values as given in patent US20080306064A1, “Benzimidazole Derivatives” (priority 2005, published 2008).

Target: T1, Human recombinant CXCR2 receptor (Homo sapiens, UniProt P25025)
T1 construct: Biosignal Packard Inc. (Kb, GTPγS assay); host or cells: CHO-K1
T1 sequence (P25025 1-360): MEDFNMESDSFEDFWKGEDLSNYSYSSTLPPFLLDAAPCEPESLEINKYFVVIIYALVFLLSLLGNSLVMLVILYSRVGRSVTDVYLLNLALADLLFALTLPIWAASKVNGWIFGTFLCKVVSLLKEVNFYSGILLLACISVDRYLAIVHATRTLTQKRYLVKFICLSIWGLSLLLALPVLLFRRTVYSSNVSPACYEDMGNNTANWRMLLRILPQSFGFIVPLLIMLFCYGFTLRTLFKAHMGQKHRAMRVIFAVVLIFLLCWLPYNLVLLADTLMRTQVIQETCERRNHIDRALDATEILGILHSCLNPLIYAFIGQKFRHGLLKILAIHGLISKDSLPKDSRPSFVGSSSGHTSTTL
Assay: Receptor Binding Assay ([125I] IL-8, Ki) or [35S]-GTPγS Binding Assay (Kb) for human CXCR2 receptor
Conditions: CHO-K1 membranes expressing human CXCR2; Ki from Receptor Binding Assay, Kb from [35S]-GTPγS Binding Assay; table does not say which applies per value; compounds are trifluoroacetic acid salts
Experimental: [^125I] IL-8 (human recombinant) was obtained from Amersham Pharmacia Biotech., with specific activity 2000 Ci/mmol. All other chemicals were of analytical grade. Human recombinant CXCR2 receptor expressed in Chinese hamster ovary cells (CHO-K1) was purchased from Euroscreen. The Chinese hamster ovary membranes were prepared according to protocol supplied by Euroscreen. Membrane protein concentration was determined using a Bio-Rad protein assay. Assays were performed in a 96-well micro plate format according the method described in White, et al., J Biol Chem., 1998, 273, 10095). Each reaction mixture contained 0.05 mg/ml CXCR2 membrane protein in 20 mM Bis-Tris-propane, pH 8.0, containing 1.2 mM MgSO4, 0.1 mM EDTA, 25 mM NaCl and 0.03% CHAPS. In addition, compound of interest was added which had been pre-dissolved in dimethylsulphoxide (DMSO) so as to reach a final concentration of between 10 μM and 0.0005 μM (final concentration of DMSO 2% (v/v)). Binding was initiated by addition of 0.02 nM ^125I-IL-8. After 2 hours at room temperature the plate was harvested using a Brandell™ 96-well harvester onto glass fibre filter plate (GF/c) blocked with 1% polyethyleneimine+0.5% BSA and washed 3 times with 25 mM NaCl, 10 mM TrisHCl, 1 mM MgSO4, 0.5 mM EDTA, 0.03% CHAPS, pH 7.4. The filter was dried at 50° C. overnight. Backseal was then applied to the plate and 50 μl of liquid scintillation fluid added. The counts were then measured on the Packard Topcount™ scintillation counter.
[^35S]-GTPγS Binding Assay for Human CXCR2 Receptor Using SPA Technology
[^35S]-GTPγS (with specific activity 1082 Ci/mmol) and wheat germ agglutinin poly vinyl toluene scintillation proximity beads were purchased from Amersham Pharmacia Biotech. The Chinese hamster ovary cell (CHO-K1) membranes expressing human CXCR2 receptors were purchased from Biosignal Packard Inc. All other chemicals were of analytical grade. White non-binding surface 96 well Optiplate™ microplates were obtained from Packard. Recombinant human IL-8 was synthesised, cloned and expressed in Escherichia coli as described previously (Lindley I, et al., Proc. Natl. Acad. Sci., 1988, 85(23):9199).
The assay was performed in duplicate in 96 well Optiplate™ microplate in a final volume of 250 μl per well. Compounds were diluted in DMSO (0.5% final concentration) and incubated in 20 mM HEPES buffer pH 7.4 containing 10 mM MgCl2, 100 mM NaCl, 1 mM EDTA plus 100 nM IL-8, 50 VM GDP and 500 pM [^35S]GTPγS per well. SPA beads (1 mg/well final concentration) were pre-mixed with the membranes ([…] final concentration) in assay buffer: 20 mM HEPES buffer pH 7.4 containing 10 mM MgCl2, 100 mM NaCl, 1 mM EDTA. The bead membrane mixture was then added to each well, plates were sealed and incubated at room temperature for 60 minutes. After which time the plate was centrifuged and immediately read on Packard TopCount™ scintillation counter, program [^35S dpm] for 1 min/well. Data was expressed as the % response to 100 nM IL-8 minus basal.
Ki data and Kb data are determined in the aforementioned Receptor Binding and [^35S]-GTPγS Binding Assays respectively.

Ki [nM]	SMILES
1500	O=C(O)c1cc(-c2ccoc2)cc2nc(Nc3cccc(Cl)c3Cl)[nH]c12 [Example 10]
1800	Cn1ccc(-c2cc(C(=O)O)c3[nH]c(Nc4cccc(Cl)c4Cl)nc3c2)n1 [Example 12]

More lines, now with the values behind:

SMILES	Ki [nM]
O=C(O)c1cc(F)cc2nc(Nc3cccc(Cl)c3Cl)[nH]c12 [Example 1, 2-(2,3-Dichloro-phenylamino)-6-fluoro-3H-benzoimidazole-4-carboxylic acid]	200
Cc1c(F)cccc1Nc1nc2cccc(C(=O)O)c2[nH]1 [Example 3]	800
O=C(O)c1cccc2nc(Nc3ccccc3-c3ccccc3)[nH]c12 [Example 5]	1200
